Series [1] can be described thus: Metabolic stability in human liver microsomes assessed as half life.
The nature of series [2]: Metabolic stability in rat hepatocytes assessed as apparent intrinsic clearance measured per 10^6 cells.
A short description of series [3]: Metabolic stability in human liver microsomes assessed as apparent intrinsic clearance. For orientation: Liver microsomes are vesicles of endoplasmic reticulum, rich in cytochrome P450 enzymes.
Series [4] can be described thus: Cytotoxicity against human HepG2 cells measured after 72 hrs by hoechst 33342 staining based imaging assay. Type of series: toxicity, cell-based.
Series [5] is described as follows: Lipophilicity, logD of compound at pH 7.4. As to conditions: buffer.
Series [6] can be described thus: Metabolic stability in rat hepatocytes assessed as half life.
Series [7] relates to Plasmodium falciparum. Briefly: microbe, parasite or virus in culture. Type of series: functional, organism-based. As to conditions: W2, 72 h, read-out: pEC50 (converted).
The nature of series [8]: Aqueous solubility of compound at pH 7.4. As to conditions: buffer.
The test system of series [9] is Plasmodium falciparum. Briefly: Antiplasmodial activity against Plasmodium falciparum strain NF54 assessed as 99% parasite clearance time in presence of 2% haematocrit and 0.5 % parasitemia at 10 times EC50 followed by media with compound exchanged daily measured after 2 weeks by standard hypoxanthine assay. Type of series: functional.

In brackets after ≈: the same amount, converted by molar mass. Bounds are passed on as bounds.

As a reminder, the half-life is the time needed for the level to fall by half in the phase considered. Usually microsomal CLint stands for a measure of how fast metabolising enzymes remove a compound, apart from limits set by blood flow. Usually logD stands for the decadic logarithm of the distribution of all forms, ionised or not, between an organic phase and buffer at a given pH. Read a high logD as higher lipophilicity. Usually solubility stands for the concentration that dissolves in the medium under given conditions. A lower solubility goes with little dissolved substance.

Take `Cc1ccc(-c2cncc(C(=O)N(C)c3ccc(Cl)cc3)c2)cc1`: the results for the half-life in series [1] and in series [6] were 6.1 min and less than 7.5 min, respectively. Also, the “CLH(app)” value in series [2] is greater than 92.4 µL/min. Further, the microsomal CLint in series [3] stood at 228 µL/min/mg. Besides, the CC50 at 72 h in [4] (read-out: CC50) and in [4] (read-out: pCC50 (converted)) was greater than 10 µM in each case. The logD in [5] was found to be 4.32.

For the compound `Cc1ccc(N(C)C(=O)c2ncn(-c3ccc(C)cc3)n2)cc1`, in the series on Plasmodium falciparum [7], the EC50 was 1.74 µM. Besides, the half-life in [1] was 11.1 min; in series [6], less than 7.5 min. Besides, the “CLH(app)” value in series [2] was greater than 92.4 µL/min. Further, the microsomal CLint in series [3] came to 125 µL/min/mg. Further, the CC50 at 72 h in series [4] (read-out: CC50) and in series [4] (read-out: pCC50 (converted)) was greater than 10 µM throughout. In series [5], the logD came out at 3.15.

Turning to `Cc1ccc(N(C)C(=O)c2ncn(-c3ccc(Cl)cc3)n2)cc1`, in the series on Plasmodium falciparum [7], the EC50 is 0.562 µM. The half-life was 33.8 min in series [1] and less than 7.5 min in series [6]. Moreover, in series [2], the “CLH(app)” value is greater than 92.4 µL/min. Besides, the microsomal CLint in series [3] amounted to 41.1 µL/min/mg. This compound also yielded a solubility in series [8] of 4.4 µM (≈ 1.44 µg/mL). The CC50 at 72 h in [4] (read-out: CC50) and in series [4] (read-out: pCC50 (converted)) was greater than 10 µM each time. The compound further displayed a logD in series [5] of 3.36.

`CCc1nc(N)nc(N)c1-c1ccc(Cl)cc1` [PYRIMETHAMINE]: in the series with Plasmodium falciparum [9], the Time is 25.9 h.

(Values after ChEMBL document CHEMBL6134860, “Discovery and optimization of a novel carboxamide scaffold with selective antimalarial activity” (Eur J Med Chem, 2025).)
